# Measured values taken from patent US9248928B2, “Methods of manufacturing contact lenses for delivery of beneficial agents” (CooperVision International Holding Company, LP, priority 2012, dated 2016).
# Counter-ions that a name gives are not always drawn. Like-named read-outs stand apart in the source and are kept apart here.
# Key:
# [1] = for % of the epinastine taken up by the lens that released (extracted): PBS
# Procedure: (§1) As used herein, a cationic agent is considered to be autoclave-stable in a given package and packaging solution if there is less than 2% degradation of the cationic agent after it is autoclaved two times in its intended package and packaging solution without a lens present, wherein the autoclave conditions used are 120° C. for 30 minutes at about 17 psi. A reference to 2× or 3× autoclave of a package is intended to include a step of allowing the package to cool to room temperature before and after the 2nd, and if applicable, 3rd autoclave treatments. The amount of degradation is determined using an HPLC method appropriate for the cationic agent being tested. Alternatively or additionally, a cationic agent is considered autoclave-stable in a given packaging solution if the percentage of cationic agent that can be extracted from the lens after 2× autoclave is more than 95% of the percentage of cationic agent that can be extracted from a non-autoclaved lens packaged in the same packaging solution and kept at room temperature for 24 hours, where the extraction method used is substantially as described in Example 4, or an equivalent method. The percentage of cationic agent extracted from the autoclaved (test) and non-autoclaved (control) lenses is determined relative to the amount of cationic agent taken up by the test and control lenses, respectfully. Thus, for example, a control lens may take up 100 μg of a cationic agent from a packaging solution after 24 hours at room temperature and 97 μg (i.e. 97%) of the cationic agent can be extracted from the lens. If the corresponding test (2× autoclaved) lens takes up 120 μg of the cationic agent from the packaging solution, but only 108 μg (i.e. 90%) of the cationic agent is extracted using the same extraction method as for the control lens, then there is considered to be a 7% difference between the amount cationic agent extracted from control and test lenses.
# The packaged lenses were either autoclaved once or twice for 20 minutes at 120° C. and then kept at room temperature overnight, or kept at room temperature overnight without autoclaving. 1.2 ml PBS comprising 200 μg/ml epinastine HCL was autoclaved once or twice in a glass vial without a lens (autoclave control solution).
# Each lens was blotted dry with lint-free paper, and placed in a vial containing 10 ml of an extraction medium consisting of 60 parts of 0.3% triethylamine in deionized (pH adjusted to 4.0 using phosphoric acid) and 40 parts methanol. The vials were sonicated for 30 minutes at room temperature. The lens were removed from the extraction solution and transferred to individual vials containing 5 ml of fresh extraction medium and sonicated again for 30 minutes. For each lens, the extraction media was combined to obtain 15 ml extraction medium for each lens and the amount of epinastine extracted from each lens was measured by HPLC.
# The study was repeated using silicone hydrogel contact lenses prepared according to Example 1 and packaged in TRIS buffer (described above) comprising 150 μg/ml epinastine. The lenses were autoclaved 0-3 times each.
# [2] = Autoclave stability of cationic agents in packaging solution
# Procedure: as §1
# Both εPLL and epinastine have primary amine groups, whereas olopatadine and ketotifen have none. […] TRIS buffer drops in pH with increased temperature, down to a pH of about 4.3 during autoclave. […] Thus, in one example, the packaging solution used in the method of manufacturing the contact lenses described herein is temperature-sensitive. By temperature-sensitive, it is meant that the pH of the packaging solution drops by at least one (e.g a drop from pH 7.5 to pH 6.5) during autoclave at 120° C. for 30 minutes. In specific examples, the pH of the temperature-sensitive packaging solution drops during autoclave by at least 1.5, 2.0, or 2.5. Exemplary temperature-sensitive buffers include {[tris(hydroxymethyl)methyl]amino}propanesulfonic acid (TAPS), N,N-bis(21-hydroxyethyl)glycine (Bicine), tris(hycroxymethyl)methylamine (TRIS), N-tris(hydroxymethyl)methylglycine (Tricine), {[tris(hydroxymethyl)methyl]amino}ethanesulfonic acid (TES), 3-(N-morpholino)propanesulfonic acid (MOPS), and the like. […] In one such example, the packaging solution comprises a TRIS buffer. In a further example, the cationic agent comprises a primary amine. In yet a further example, the cationic agent is epinastine or εPLL and the packaging solution comprises a TRIS buffer.
# [3] = Autoclave stability of εPLL in PBS or TRIS buffered saline by HPLC; type: physicochemical; settings: 500 ppm εPLL, no lens
# Procedure: […] The samples were tested by HPLC at a sufficient resolution to achieve a discernable peak for each molecular weight fraction of the εPLL.
# [4] = Autoclave # 0, silicone hydrogel lens, TRIS buffer with 150 μg/ml epinastine
# [5] = Autoclave # 1x, silicone hydrogel lens, TRIS buffer with 150 μg/ml epinastine
# [6] = Autoclave # 2x, silicone hydrogel lens, TRIS buffer with 150 μg/ml epinastine
# [7] = Autoclave # 3x, silicone hydrogel lens, TRIS buffer with 150 μg/ml epinastine
# [8] = Ocufilcon D lens, Autoclaved, PBS with 200 μg/ml epinastine HCl
# [9] = Ocufilcon D lens, Non-Autoclaved, PBS with 200 μg/ml epinastine HCl
# [10] = Silicone hydrogel lens (2x autoclave), PBS with 200 μg/ml epinastine HCl
# [11] = Silicone hydrogel lens, Autoclaved, PBS with 200 μg/ml epinastine HCl
# [12] = Silicone hydrogel lens, Non-Autoclaved, PBS with 200 μg/ml epinastine HCl
# [13] = TBS, 9 autoclaves (so in the source)
molecule,measurement,setting,value
NC1=NCC2c3ccccc3Cc3ccccc3N12 (stereo not drawn) [epinastine],% Δ,[1]; [4],0.2%
same,Extracted Amt.,[1]; [4],148.1 µg
same,Δ,[1]; [4],0.3 µg
same,% Δ,[1]; [5],1.3%
same,Extracted Amt.,[1]; [5],148.6 µg
same,Δ,[1]; [5],1.9 µg
same,% Δ,[1]; [6],1.3%
same,Extracted Amt.,[1]; [6],145.4 µg
same,Δ,[1]; [6],1.9 µg
same,% Δ,[1]; [7],3.0%
same,Extracted Amt.,[1]; [7],85.9 µg
same,Δ,[1]; [7],2.6 µg
same,% Δ,[1]; [8],7%
same,Extr. Amt.,[1]; [8],240.4 µg
same,Δ (uptake minus extracted),[1]; [8],18.5 µg
same,% Δ,[1]; [9],2%
same,Extr. Amt.,[1]; [9],243.5 µg
same,Δ (uptake minus extracted),[1]; [9],5.6 µg
same,% Δ,[1]; [10],18%
same,Extr. Amt.,[1]; [10],163.4 µg
same,Δ (uptake minus extracted),[1]; [10],36.3 µg
same,% Δ,[1]; [11],10%
same,Extr. Amt.,[1]; [11],184.5 µg
same,Δ (uptake minus extracted),[1]; [11],20.1 µg
same,% Δ,[1]; [12],1%
same,Extr. Amt.,[1]; [12],181.7 µg
same,Δ (uptake minus extracted),[1]; [12],1.3 µg
same,% of the epinastine taken up by the lens that released (extracted),[1]; autoclaved ocufilcon D lens,about 93%
same,% of the epinastine taken up by the lens that released (extracted),[1]; autoclaved silicone hydrogel lens,~90%
same,% of the epinastine taken up by the lens that released (extracted),[1]; non-autoclaved control ocufilcon D lens,98%
same,% of the epinastine taken up by the lens that released (extracted),[1]; non-autoclaved control silicone hydrogel lens,99%
same,% of the epinastine taken up by the lens that released (extracted),[1]; silicone hydrogel lens autoclaved a second time,about 82%
same,autoclave stability,[2]; in PBS,not autoclave-stable
same,autoclave stability,[2]; in TRIS buffer,autoclave-stable
CN1CCC(=C2c3ccccc3CC(=O)c3sccc32)CC1 [ketotifen fumarate],autoclave stability,[2],autoclave-stable
CN(C)CC/C=C1/c2ccccc2COc2ccc(CC(=O)O)cc21 [olopatadine HCl],autoclave stability,[2],autoclave-stable
epsilon poly-1-lysine [εPLL],Total # peaks,"[3]; PBS, 0 autoclaves",23
same,Total peak area,"[3]; PBS, 0 autoclaves",16005557
same,% Area (relative to non-autoclaved),"[3]; PBS, 2 autoclaves",91%
same,Total # peaks,"[3]; PBS, 2 autoclaves",28
same,Total peak area,"[3]; PBS, 2 autoclaves",14566887
same,% Area (relative to non-autoclaved),"[3]; PBS, 4 autoclaves",90%
same,Total # peaks,"[3]; PBS, 4 autoclaves",28
same,Total peak area,"[3]; PBS, 4 autoclaves",14468122
same,% Area (relative to non-autoclaved),"[3]; TBS, 2 autoclaves",99%
same,Total # peaks,"[3]; TBS, 2 autoclaves",27
same,Total peak area,"[3]; TBS, 2 autoclaves",14636372
same,% Area (relative to non-autoclaved),"[3]; TBS, 4 autoclaves",98%
same,Total # peaks,"[3]; TBS, 4 autoclaves",27
same,Total peak area,"[3]; TBS, 4 autoclaves",14476291
same,Total # peaks,[3]; [13],23
same,Total peak area,[3]; [13],14800289
same,autoclave stability,[2]; in PBS,not autoclave-stable
same,autoclave stability,[2]; in TRIS buffer,autoclave-stable
